From patent US20240207395A1, “ADJUVANT ACTIVITY ENHANCER AND ADJUVANT COMPOSITION” (priority 2021, published 2024) come the findings set out here.

Ends that are not written are not given here. C10PNA = 10-mer peptide nucleic acid with ten cytosine bases

Assay [1] concerns B/Maryland/15/2016 strain (B/Victoria). In kind it is in vivo, BALB/c mice. The following applies: for GMT (geometric mean IgG antibody titer) / GMT ratio to the non-adjuvanted group: BALB/c mice; for GMT (geometric mean IgG antibody titer): subcutaneous 0.1 mL, 0.6 μg HA/strain, serum 21 days after administration; for GMT ratio to the non-adjuvanted group: subcutaneous.
The test system of assay [2] is A/Kansas/14/2017 strain (A/H3N2). In kind it is in vivo, BALB/c mice. The note with it: for GMT (geometric mean IgG antibody titer) / GMT ratio to the non-adjuvanted group: BALB/c mice; for GMT (geometric mean IgG antibody titer): subcutaneous 0.1 mL, 0.6 μg HA/strain, serum 21 days after administration; for GMT ratio to the non-adjuvanted group: subcutaneous.

In the case of 5′-[…]-3′ (SEQ ID NO: 9) [ODN1826], the “GMT (geometric mean IgG antibody titer)” value in assay [1] came to 31152; in assay [2] it was 65838. Besides, the “GMT ratio to the non-adjuvanted group” value in assay [1] (Day 21) is recorded as 2.1; in assay [2] (Day 21), 5.1. Further, the “Subclass ratio of IgG1/IgG2a” value in assay [1] (Day 21) and in assay [2] (Day 21) was “IgG2a dominant” throughout.

Take “MIP-03: HIV TAT-derived peptide of 13 amino acids (SEQ ID NO: 1) covalently bound at its C-terminal to C10PNA (GRKKRRQRRRPPQ-C10PNA)”: the entries for the “GMT (geometric mean IgG antibody titer)” value in assay [1] and in assay [2] were 25802 and 112071, respectively. For the same substance, the entries for the “GMT ratio to the non-adjuvanted group” value in assay [1] (Day 21) and in assay [2] (Day 21) were 1.7 and 8.7, respectively.
